Reference: patent US20260223854A1, “AN HERBICIDAL COMBINATION, COMPOSITION AND METHOD OF CONTROLLING WEEDS USING THE SAME” (priority 2023, published 2026)

How the values were obtained:
Type in all cases: in vivo
Brachiaria decumbens = experiment: Greenhouse post-emergence herbicidal activity on Brachiaria decumbens; settings: 3 DAA, L-glufosinate ammonium 150 g a.i./ha
Method: (§1) The expected efficacy of a combination of L-glufosinate ammonium and the other herbicides was calculated using the well-established Colby method. Any difference between the observed and “expected” efficacy could be attributed to synergy between the two compounds.
(§2) In the Colby method, the expected (or predicted) response of a combination of herbicides is calculated by taking the product of the observed response for each individual component of the combination when applied alone, divided by 100, and subtracting this value from the sum of the observed response for each component when applied alone. An unexpected enhancement in efficacy of the combination is then determined by comparing the observed response of the combination to the expected (or predicted) response as calculated from the observed response of each individual component alone. If the observed response of the combination is greater than the expected (or predicted) response, or stated conversely, if the difference between the observed and expected response is greater than zero, then the combination is said to be synergistic or unexpectedly effective (Colby, S. R., Weeds, 1967 (15), p. 20-22). The Colby method requires only a single dose of each herbicide applied alone and the mixture of both doses. The formula used to calculate the expected efficacy (EE) which was compared with the observed efficacy (OE) to determine the efficacy of the present disclosure is explained hereinbelow:
(§3) Methodology: Greenhouse trials were conducted to evaluate the efficacy of the combination of L-glufosinate ammonium and triketone herbicides—mesotrione and tembotrione—on weeds Amaranthus viridis, Borreria verticillata, Brachiaria decumbens and Eleusine indica.
(§4) The soil used was sandy clay loam—sand: 68.0%; silt: 8.0%; clay: 24.0%.
(§5) All treatments were in 4 replications per treatment with a spray volume of 150 L/ha.
The percentage efficacy was calculated at 14 days after application (DAA). The target weed was Brachiaria decumbens, and the concentration of the herbicide and the results are recorded in Table 1.
The percentage efficacy was calculated at 3 days of application (DAA). The target weed was Brachiaria decumbens and the concentration of the herbicide and the results are recorded in Table 7.

Borreria verticillata = experiment: Greenhouse post-emergence herbicidal activity on Borreria verticillata; settings: L-glufosinate ammonium 150 g a.i./ha
Method: as §1, §2, §3, §4, §5
The percentage efficacy was calculated at 28 and 35 days after application (DAA). The target weed was Borreria verticillata, and the concentration of the herbicide and the results are recorded in Table 2.
The percentage efficacy was calculated at 3 and 7 days of application (DAA). The target weed was Borreria verticillata, and the concentration of the herbicide and the results are recorded in Table 6.

Eleusine indica = experiment: Greenhouse post-emergence herbicidal activity on Eleusine indica; settings: L-glufosinate ammonium 150 g a.i./ha
Method: as §1, §2, §3, §4, §5
The percentage efficacy was calculated at 14 days after application (DAA). The target weed was Eleusine indica, and the concentration of the herbicide and the results are recorded in Table 3.
The percentage efficacy was calculated at 3, 7, 21, 28, 35 days of application (DAA). The target weed was Eleusine indica, and the concentration of the herbicide and the results are recorded in Table 8.

Amaranthus viridis = experiment: Greenhouse post-emergence herbicidal activity on Amaranthus viridis; settings: L-glufosinate ammonium 150 g a.i./ha
Method: as §1, §2, §3, §4, §5
The percentage efficacy was calculated at 3 and 7 days after application (DAA). The target weed was Amaranthus viridis, and the concentration of the herbicide and the results are recorded in Table 4.
The percentage efficacy was calculated at 3 and 7 days of application (DAA). The target weed was Amaranthus viridis, and the concentration of the herbicide and the results are recorded Table 5.

[1] = mesotrione 100 g a.i./ha, Table 1
[2] = tembotrione 53 g a.i./ha, Table 7
[3] = 3 DAA, tembotrione 53 g a.i./ha, Table 6
[4] = 7 DAA, tembotrione 53 g a.i./ha, Table 6
[5] = 28 DAA, mesotrione 100 g a.i./ha, Table 2
[6] = 35 DAA, mesotrione 100 g a.i./ha, Table 2
[7] = 3 DAA, tembotrione 53 g a.i./ha, Table 8
[8] = 7 DAA, tembotrione 53 g a.i./ha, Table 8
[9] = 14 DAA, mesotrione 100 g a.i./ha, Table 3
[10] = 21 DAA, tembotrione 53 g a.i./ha, Table 8
[11] = 28 DAA, tembotrione 53 g a.i./ha, Table 8
[12] = 35 DAA, tembotrione 53 g a.i./ha, Table 8
[13] = 3 DAA, mesotrione 100 g a.i./ha, Table 4
[14] = 3 DAA, tembotrione 53 g a.i./ha, Table 5
[15] = 7 DAA, mesotrione 100 g a.i./ha, Table 4
[16] = 7 DAA, tembotrione 53 g a.i./ha, Table 5

SMILES	% Control (Brachiaria decumbens; [1]) [%]	% Control (Brachiaria decumbens; [2]) [%]	% Control (Borreria verticillata; [3]) [%]	% Control (Borreria verticillata; [4]) [%]	% Control (Borreria verticillata; [5]) [%]	% Control (Borreria verticillata; [6]) [%]	% Control (Eleusine indica; [7]) [%]	% Control (Eleusine indica; [8]) [%]	% Control (Eleusine indica; [9]) [%]	% Control (Eleusine indica; [10]) [%]	% Control (Eleusine indica; [11]) [%]	% Control (Eleusine indica; [12]) [%]	% Control (Amaranthus viridis; [13]) [%]	% Control (Amaranthus viridis; [14]) [%]	% Control (Amaranthus viridis; [15]) [%]	% Control (Amaranthus viridis; [16]) [%]
CP(=O)(O)CC[C@H](N)C(=O)O.N [L-glufosinate ammonium, ammonium (2S)-2-amino-4-(methylphosphinato) butyric acid]	40	40	55	80	90	85	40	50	30	50	30	40	40	50	80	80
CS(=O)(=O)c1ccc(C(=O)C2C(=O)CCCC2=O)c([N+](=O)[O-])c1 [Mesotrione, mesotrione]	10	–	–	–	75	75	–	–	20	–	–	–	10	–	30	–
CS(=O)(=O)c1ccc(C(=O)C2C(=O)CCCC2=O)c(Cl)c1COCC(F)(F)F [Tembotrione, tembotrione]	–	8	10	30	–	–	5	15	–	28	35	20	–	10	–	30
